Laboratory results taken from patent US20220280450A1, “PREVENTION AND TREATMENT OF CORONAVIRUS AND RELATED RESPIRATORY INFECTIONS” (PhilERA New Zealand Ltd., priority 2021, published 2022).
Values joined by “and” are separate entries in the source; they are usually repeats but may differ in a detail not shown here. Equal values may be shown once.

Key:
clinical [1] = conditions: human, in vivo
[2] = human, in vivo
clinical [3] = conditions: human, in vivo; remark: listed apart in the source
Pgp [4] = test: Permeability in Caco-2 barrier model; conditions: human
Protocol: (§1) Digoxin was used as marker to check for Pgp activity in the cultures. […] Samples were recovered from receptor compartments after 0, 15, 30, 45, 60, and 120 minutes, and further analyzed by liquid scintillation counting. Samples were also recovered a time 0 and 120 minutes from the donor compartments for mass balance evaluation. Each condition was performed in 3 replicated transwell filters in the presence of the Caco-2 barrier.

P-gp = test: Permeability in Caco-2 barrier model; conditions: human
Protocol: as §1

Pgp [5] = molecular target: Pgp (Homo sapiens, UniProt P08183); conditions: PX811019 0.2 mM applied basolaterally
urinary copper excretion = conditions: in vivo, po
[6] = population mean (% CV in table)

Pgp (Homo sapiens, UniProt P08183), sequence (P08183 whole entry): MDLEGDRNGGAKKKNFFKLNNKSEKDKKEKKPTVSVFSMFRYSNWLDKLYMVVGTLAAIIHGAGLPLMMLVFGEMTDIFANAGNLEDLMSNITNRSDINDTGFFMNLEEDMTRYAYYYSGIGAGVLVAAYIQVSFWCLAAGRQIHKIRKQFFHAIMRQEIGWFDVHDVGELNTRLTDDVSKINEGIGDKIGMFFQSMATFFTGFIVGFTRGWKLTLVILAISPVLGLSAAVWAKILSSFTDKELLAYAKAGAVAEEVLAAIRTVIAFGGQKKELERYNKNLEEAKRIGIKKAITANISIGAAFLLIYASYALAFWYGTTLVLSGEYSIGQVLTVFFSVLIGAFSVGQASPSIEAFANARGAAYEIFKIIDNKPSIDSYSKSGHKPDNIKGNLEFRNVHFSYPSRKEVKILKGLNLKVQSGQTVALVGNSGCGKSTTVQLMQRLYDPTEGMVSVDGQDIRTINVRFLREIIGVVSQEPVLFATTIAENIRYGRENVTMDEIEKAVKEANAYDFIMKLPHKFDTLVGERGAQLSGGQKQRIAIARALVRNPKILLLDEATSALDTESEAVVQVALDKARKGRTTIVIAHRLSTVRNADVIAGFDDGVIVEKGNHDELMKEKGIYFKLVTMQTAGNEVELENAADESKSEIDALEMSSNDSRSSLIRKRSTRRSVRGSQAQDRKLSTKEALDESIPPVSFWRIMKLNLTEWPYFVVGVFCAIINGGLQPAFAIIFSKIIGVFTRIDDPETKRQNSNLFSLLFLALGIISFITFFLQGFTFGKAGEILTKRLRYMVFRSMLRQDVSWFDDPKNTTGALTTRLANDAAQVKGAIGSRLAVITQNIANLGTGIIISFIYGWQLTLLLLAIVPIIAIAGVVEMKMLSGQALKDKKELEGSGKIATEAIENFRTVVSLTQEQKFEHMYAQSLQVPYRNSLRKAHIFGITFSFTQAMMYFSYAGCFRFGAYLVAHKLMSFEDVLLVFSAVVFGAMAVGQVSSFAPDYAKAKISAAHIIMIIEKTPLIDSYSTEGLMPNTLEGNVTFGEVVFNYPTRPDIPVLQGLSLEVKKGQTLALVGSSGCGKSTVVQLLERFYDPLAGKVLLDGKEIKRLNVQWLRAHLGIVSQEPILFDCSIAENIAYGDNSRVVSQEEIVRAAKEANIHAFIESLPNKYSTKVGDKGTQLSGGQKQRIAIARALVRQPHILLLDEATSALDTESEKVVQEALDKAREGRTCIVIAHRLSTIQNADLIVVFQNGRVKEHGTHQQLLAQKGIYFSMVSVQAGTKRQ

SMILES: CC(=O)NCCNCCNCCNC(C)=O [DAT, N1,N10-diacetyltriethylenetetramine]
- Tmax (clinical [1]): 5 to 6 h
- Cmax of DAT relative to MAT [2]: 3-4 fold lower
- CL/F (clinical [3]): 5100 mL/min
- Inter-individual variability of CLD/F/frM/frD (estimate (% CV in table)): 55.9% and 55.9 (18.1) [1.5] %
- Inter-individual variability of VP,D/F/frM/frD (estimate (% CV in table)): 86.8% and 86.8 (29.4) [2.7] %
- Apparent volume for DAT, VP,D/F/frM/frD [6]: 197 L and 197 (17.7) L

SMILES: C[C@H]1O[C@@H](O[C@H]2[C@@H](O)C[C@H](O[C@H]3[C@@H](O)C[C@H](O[C@H]4CC[C@@]5(C)[C@H](CC[C@@H]6[C@@H]5C[C@@H](O)[C@]5(C)[C@@H](C7=CC(=O)OC7)CC[C@]65O)C4)O[C@@H]3C)O[C@@H]2C)C[C@H](O)[C@@H]1O [Digoxin]
- Papp B→A (Pgp [4]): 6.08 ×10⁻⁶ cm/s
- efflux ratio (P-gp): 8.06
- Papp B-A of Digoxin in presence of PX811019 (Pgp [5]): 5.68±3.03×10^−6 cm/s

SMILES: CC(=O)NCCNCCNCCN [MAT, N1-acetyltriethylenetetramine]
- CL/F (clinical [3]): 1270 mL/min
- Inter-individual variability of CLM/F/frM (estimate (% CV in table)): 41.5% and 41.5 (15.1) [2.9] %
- Inter-individual variability of VP,M/F/frM (estimate (% CV in table)): 55.1% and 55.1 (17.4) [2.7] %
- Apparent volume for MAT, VP,M/F/frM [6]: 426 L and 426 (9.8) L
- Mean transit time for MAT formation [6]: 0.381 h and 0.381 (34.2) h

SMILES: NCCNCCNCCN.O=C(O)CCC(=O)O.O=C(O)CCC(=O)O [PX811019, triethylenetetramine disuccinate]
- Level of cupriuresis versus dose (urinary copper excretion): approximately the same at 435 and 1305 mg PX811019 and increased at the highest dose of 2175 mg
- Tmax (clinical [1]): 1.25 to 2 h

SMILES: NCCNCCNCCN [TETA, triethylenetetramine]
- CL/F (clinical [3]): 2350 mL/min
- Increase of model predicted VT,T/F for every 100 mg difference from the 750 mg dose (human, in vivo): 6.37%
- Inter-individual variability of SL · ER0 (in vivo): 58.1% and 58.1 (25.1) [7.8] %
- Slope (SL) of copper excretion versus TETA concentration (in vivo): 41.8 (mg/L)^−1
